Test results from patent US11963519B2 (priority 2022, dated 2024).
“And” between values parts separate entries of the source, which are not always exact repeats. Equal entries are not always repeated.

What was measured:
CD-1 mice [1] = type: in vivo, mouse
CD-1 mice [2] = type: in vivo, mouse; remark: listed apart in the source
CD-1 mice [3] = conditions: mouse, in vivo

Compound: CN(C)CCCN1c2ccccc2CCc2ccccc21 [IMI, imipramine]
- motionlessness time (behavioral despair state) in TST of BCG+PTX model mice (CD-1 mice [1]; mouse, in vivo): improved
- exploratory behaviors in open-field test of BCG+PTX model mice (CD-1 mice [2]; mouse, in vivo): increased
- exploratory behaviors in open-field test of depression model mice (CD-1 mice [2]; mouse, in vivo): decreased
- number of times of zone crossing in open-field test of BCG+PTX model mice (CD-1 mice [2]; mouse, in vivo): increased
- number of times of zone crossing in open-field test of depression model mice (CD-1 mice [2]; mouse, in vivo): decreased
- total movement distance in open-field test of BCG+PTX model mice (CD-1 mice [2]; mouse, in vivo): increased
- total movement distance in open-field test of depression model mice (CD-1 mice [2]; mouse, in vivo): decreased
- sucrose preference rate in depression model mice (CD-1 mice [3]): significantly reduce

Compound: Bacille Calmette-Guerin [BCG]
- TST Motionlessness time (CD-1 mice [1]; n=12): 122.60 ± 34.11 s and 98.84 ± 21.35 s
- Open-field test Number of times of exploratory behaviors (CD-1 mice [2]; n=12): 23.83 ± 12.41 and 38.92 ± 15.96
- Open-field test Number of times of zone crossing (CD-1 mice [2]; n=12): 104.91 ± 35.1528 and 138.73 ± 23.44
- Open-field test Total movement distance (CD-1 mice [2]; n=12): 582.74 ± 211.42 cm and 734.20 ± 349.87 cm
